Experimental data as given in the NIST ThermoML archive (doi:10.1007/s10765-010-0766-0).
“And” between values parts separate entries of the source, which are not always exact repeats. Equal entries are not always repeated.

Assay: molar heat capacity at constant volume; wn = mass fraction of the nth substance listed
Conditions: Liquid, Vacuum adiabatic calorimetry, w2 = 0.4981

FC(F)C(F)(F)F [pentafluoroethane] + FCF
Conditions | molar heat capacity at constant volume
277.15 K, 11982 kPa | 66.66 J/K/mol
278.15 K, 12826 kPa | 66.08 J/K/mol
279.15 K, 13669 kPa | 66.51 J/K/mol
280.15 K, 14512 kPa | 66.73 J/K/mol
281.15 K, 15355 kPa | 66.15 J/K/mol
282.15 K, 16198 kPa | 66.44 J/K/mol
283.15 K, 17040 kPa | 65.86 J/K/mol
284.15 K, 17881 kPa | 67.75 J/K/mol
285.15 K, 18722 kPa | 66.22 J/K/mol
286.15 K, 19563 kPa | 66.08 J/K/mol
287.15 K, 20403 kPa | 66.15 J/K/mol
288.15 K, 21239 kPa | 65.93 J/K/mol
289.15 K, 22077 kPa | 67.1 J/K/mol
291.15 K, 23750 kPa | 66.88 J/K/mol
292.15 K, 24585 kPa | 66.81 J/K/mol
293.15 K, 25420 kPa | 65.64 J/K/mol
294.15 K, 26254 kPa | 66.37 J/K/mol
295.15 K, 27085 kPa | 65.28 J/K/mol
296.15 K, 27917 kPa | 67.31 J/K/mol
297.15 K, 8118 kPa | 66.88 J/K/mol
297.15 K, 28747 kPa | 66.22 J/K/mol
298.15 K, 29575 kPa | 66.01 J/K/mol
299.15 K, 9422 kPa | 68.48 J/K/mol
300.15 K, 10072 kPa | 69.35 J/K/mol
300.15 K, 10089 kPa | 66.22 J/K/mol
301.15 K, 10723 kPa | 68.99 J/K/mol
301.15 K, 10737 kPa | 69.93 J/K/mol
302.15 K, 11374 kPa | 69.2 J/K/mol
302.15 K, 11385 kPa | 67.31 J/K/mol
303.15 K, 12024 kPa | 69.2 J/K/mol
303.15 K, 12032 kPa | 68.7 J/K/mol
304.15 K, 12672 kPa | 68.91 J/K/mol
304.15 K, 12680 kPa | 68.77 J/K/mol
305.15 K, 13320 kPa | 69.57 J/K/mol
305.15 K, 13327 kPa | 69.06 J/K/mol
306.15 K, 13970 kPa | 69.06 J/K/mol
306.15 K, 13973 kPa | 68.99 J/K/mol
307.15 K, 14620 kPa | 68.62 J/K/mol and 68.33 J/K/mol
308.15 K, 15268 kPa | 69.71 J/K/mol and 68.11 J/K/mol
309.15 K, 15915 kPa | 68.62 J/K/mol
309.15 K, 15917 kPa | 69.57 J/K/mol
310.15 K, 16562 kPa | 68.55 J/K/mol
310.15 K, 16564 kPa | 68.84 J/K/mol
311.15 K, 17208 kPa | 69.13 J/K/mol
311.15 K, 17212 kPa | 68.99 J/K/mol
312.15 K, 17853 kPa | 68.91 J/K/mol
312.15 K, 17859 kPa | 68.41 J/K/mol
313.15 K, 18499 kPa | 66.81 J/K/mol
313.15 K, 18506 kPa | 68.77 J/K/mol
314.15 K, 19144 kPa | 68.48 J/K/mol
314.15 K, 19153 kPa | 69.13 J/K/mol
315.15 K, 19788 kPa | 68.41 J/K/mol
315.15 K, 19798 kPa | 69.35 J/K/mol
316.15 K, 20432 kPa | 68.55 J/K/mol
316.15 K, 20443 kPa | 68.41 J/K/mol
317.15 K, 21075 kPa | 68.48 J/K/mol
317.15 K, 21088 kPa | 68.62 J/K/mol
318.15 K, 21719 kPa | 67.75 J/K/mol
318.15 K, 21733 kPa | 68.55 J/K/mol
319.15 K, 22362 kPa | 68.33 J/K/mol
319.15 K, 22377 kPa | 67.9 J/K/mol
320.15 K, 23005 kPa | 69.71 J/K/mol
320.15 K, 23021 kPa | 69.2 J/K/mol
321.15 K, 23648 kPa | 67.1 J/K/mol
321.15 K, 23665 kPa | 68.33 J/K/mol
322.15 K, 24289 kPa | 70.15 J/K/mol
322.15 K, 24307 kPa | 68.41 J/K/mol
323.15 K, 24930 kPa | 68.41 J/K/mol
323.15 K, 24949 kPa | 69.71 J/K/mol
324.15 K, 25571 kPa | 68.77 J/K/mol
324.15 K, 25590 kPa | 68.04 J/K/mol
325.15 K, 26210 kPa | 67.61 J/K/mol
325.15 K, 26231 kPa | 68.41 J/K/mol
326.15 K, 26850 kPa | 68.62 J/K/mol
326.15 K, 26871 kPa | 68.11 J/K/mol
327.15 K, 27488 kPa | 68.55 J/K/mol
327.15 K, 27511 kPa | 67.75 J/K/mol
328.15 K, 28127 kPa | 68.62 J/K/mol
328.15 K, 28150 kPa | 68.19 J/K/mol
329.15 K, 5865 kPa | 70.22 J/K/mol
329.15 K, 5904 kPa | 72.11 J/K/mol
329.15 K, 28764 kPa | 69.13 J/K/mol
329.15 K, 28790 kPa | 68.62 J/K/mol
330.15 K, 6231 kPa | 73.78 J/K/mol
330.15 K, 6255 kPa | 72.33 J/K/mol
330.15 K, 6269 kPa | 69.13 J/K/mol
330.15 K, 29402 kPa | 68.04 J/K/mol
330.15 K, 29426 kPa | 67.97 J/K/mol
331.15 K, 6598 kPa | 70.66 J/K/mol
331.15 K, 6620 kPa | 71.09 J/K/mol
331.15 K, 6635 kPa | 70.15 J/K/mol
331.15 K, 30065 kPa | 69.93 J/K/mol
332.15 K, 6965 kPa | 73.2 J/K/mol
332.15 K, 6987 kPa | 73.28 J/K/mol
